Experimental findings from patent US5801016A, “DNA fragment, recombinant vector containing the same and method for expressing foreign genes using the same” (Japan Tobacco Inc., priority 1995, dated 1998) are described below.

Assay [1] addresses T1, rice (Oryza sativa) bran phospholipase D (PLD), purified fraction Mono Q 2nd-I (Oryza sativa subsp. japonica, UniProt Q43007).
T1 construct: bran of rice (Oryza sativa); from tissue; host or cells: rice (Oryza sativa) bran, variety KOSHIHIKARI, purified to Mono Q 2nd-I
T1 sequence (Q43007 47-812): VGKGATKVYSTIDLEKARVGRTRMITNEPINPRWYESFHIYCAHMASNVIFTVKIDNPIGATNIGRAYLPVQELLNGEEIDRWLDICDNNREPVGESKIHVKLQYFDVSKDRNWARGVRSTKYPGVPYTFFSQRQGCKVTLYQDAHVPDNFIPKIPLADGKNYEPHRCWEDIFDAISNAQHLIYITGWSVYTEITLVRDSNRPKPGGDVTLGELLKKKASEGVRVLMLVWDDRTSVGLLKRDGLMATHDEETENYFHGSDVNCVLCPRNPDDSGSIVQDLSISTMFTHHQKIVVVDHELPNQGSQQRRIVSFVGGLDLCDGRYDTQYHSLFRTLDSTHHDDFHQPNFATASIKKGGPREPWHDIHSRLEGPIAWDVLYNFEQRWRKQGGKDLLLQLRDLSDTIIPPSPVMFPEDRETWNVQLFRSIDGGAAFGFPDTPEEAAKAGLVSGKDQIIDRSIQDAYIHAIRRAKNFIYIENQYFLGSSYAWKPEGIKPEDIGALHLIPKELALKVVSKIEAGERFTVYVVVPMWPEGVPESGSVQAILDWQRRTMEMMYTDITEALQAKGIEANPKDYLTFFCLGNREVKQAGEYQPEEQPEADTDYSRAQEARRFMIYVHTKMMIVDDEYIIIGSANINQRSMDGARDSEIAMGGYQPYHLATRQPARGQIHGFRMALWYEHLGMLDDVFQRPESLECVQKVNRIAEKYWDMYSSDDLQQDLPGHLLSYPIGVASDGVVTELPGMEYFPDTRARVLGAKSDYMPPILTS
Put plainly: PLD enzyme activity with phosphatidylcholine as substrate, quantifying the choline generated. It is filed as biochemical. Conditions: eluted solution Mono Q 2nd-I. The procedure:
(§1) For purification, a reference (Takano et al., Journal of Japan Food Industry Association, 34, 8-13 (1987) was referred. The enzyme activity was measured by employing phosphatidylcholine as a substrate and quantifying the choline generated by the enzyme reaction (Imamura et al., J. Biochem. 83, 677-680 (1978)). It should be noted, however, the enzyme reaction was stopped by heat treatment at 95° C. for 5 minutes.
(§2) Properties of the enzymes contained in the two fractions were determined. The buffer solutions used for the measurement of the optimum pH were sodium acetate (pH 4-6), MES-NaOH (pH 5.5-7.0) and Tris-HCl (pH 7-9), all of which have a concentration of 100 mM in all of the buffer solutions. The pH stability means the pH range in which decrease in the enzyme activity is not observed after leaving the enzyme at the respective pH at 25° C. for 30 minutes. The temperature stability was measured by measuring the remaining activity after leaving the enzyme to stand at 4° C., 25° C., 37° C. or 50° C. for 30 minutes. The substrate specificity was measured at a substrate concentration of 5 mM and expressed in terms of the relative activity taking the enzyme activity to phosphatidylcholine as 100.

Assay [2] deals with T2, rice (Oryza sativa) bran phospholipase D (PLD), purified fraction Mono Q 2nd-II (Oryza sativa subsp. japonica, UniProt Q43007).
T2 construct: bran of rice (Oryza sativa); from tissue; host or cells: rice (Oryza sativa) bran, variety KOSHIHIKARI, purified to Mono Q 2nd-II
T2 sequence (Q43007 47-812): T1 sequence (Q43007 47-812)
The assay is described as above. It is filed as biochemical. Conditions: eluted solution Mono Q 2nd-II. On the procedure:
as §1, §2

The Km is the substrate concentration at which the rate is half of its maximum.

On to phosphatidylcholine, for which the Michaelis-Menten constant (Km) in assay [1] and in assay [2] was 290 µM in each case.
